Measured values taken from patent US10160785B2, “Antimicrobial peptides and their use for the treatment of topical infections” (priority 2015, dated 2018).

Legend:
Escherichia coli = details: 37° C., 20 h
Description: (§1) Gram-positive bacteria (Micrococcus luteus, Bacillus subtilis, Staphylococcus aureus, Staphylococcus epidermidis and Enterococcus faecalis), Gram-negative bacteria (Escherichia coli and Pseudomonas aeruginosa) and the yeast (Candida albicans) were grown to exponential phase and then were diluted with fresh medium. BHI medium (Oxoid, Great Britain) was used for Enterococcus faecalis; YPD medium containing yeast extract peptone and glucose was used for Candida albicans and LB medium (Sigma, Czech Republic) was used for the remaining microorganisms. Then the microorganisms were added to the solutions of the tested antimicrobial peptides in LB medium in multi-well plates. The final peptide concentration it the wells was in the range of 0.1 to 100 μmol.l^−1. That was made by twofold serial dilution from the peptide stock solution (1 mmol.l^−1). The plates were incubated at 37° C. for 20 h while being continuously shaken in a Bioscreen C (Oy Growth Curves AB Ltd., Helsinki, Finland). Absorbance was measured at 540 nm every 15 min. Antimicrobial activity (Table 2) was determined as a quantitative minimum inhibitory concentration (MIC) by observing bacterial growth in the presence of different concentrations of tested peptides. In the experiments ca 10^5 CFU of bacteria or candida per well were routinely used.
(§2) Multiresistant clinical isolates of bacteria were obtained from University Hospital in Motol, Prague, Czech Republic and from Liberec Regional Hospital, Czech Republic. Methicillin resistant Staphylococcus aureus (MRSA) 6271 and Pseudomonas aeruginosa 5482 were from the Czech National Collection of Type Cultures, the National Institute of Public Health, Prague, Czech Republic. Other bacteria were from the Czech Collection of Microorganisms, Brno, Czech Republic. Candida albicans came from the Faculty of Medicine, Palacky University, Olomouc, Czech Republic.

[1] = tested on: Pseudomonas aeruginosa Liberec; details: for Antimicrobial activity MIC P. a. Liberec: Pseudomonas aeruginosa Liberec, 37° C., 20 h
Description: as §1, §2

[2] = tested on: Enterococcus faecalis Motol; details: BHI medium, 37° C., 20 h
Description: as §1, §2

Bacillus subtilis = details: for Antimicrobial activity MIC B. s.: Bacillus subtilis, 37° C., 20 h
Description: as §1, §2

[3] = tested on: Pseudomonas aeruginosa 5482; details: 37° C., 20 h
Description: as §1, §2

[4] = tested on: Methicillin resistant Staphylococcus aureus (MRSA) 6271; details: 37° C., 20 h
Description: as §1, §2

[5] = tested on: Staphylococcus epidermidis Motol; details: 37° C., 20 h
Description: as §1, §2

Micrococcus luteus = details: for Antimicrobial activity MIC M. l.: Micrococcus luteus, 37° C., 20 h
Description: as §1, §2

[6] = tested on: Staphylococcus aureus Liberec; details: for Antimicrobial activity MIC S. a. Liberec: Staphylococcus aureus Liberec clinical isolate, 37° C., 20 h
Description: as §1, §2

[7] = tested on: Staphylococcus aureus Motol; details: Staphylococcus aureus Motol clinical isolate; 37° C., 20 h
Description: as §1, §2

Candida albicans Olomouc = details: for Antimicrobial activity MIC C. a. Olomouc: Candida albicans Olomouc, YPD medium, 37° C., 20 h (Example 2)
Description: as §1, §2

in vitro = details: human
Description: The peptides in the concentrations 2-200 μmol.l^−1 were incubated with the suspension of human red blood cells (5% v/v) for 1 h at 37° C. in a physiological solution at a final volume of 0.2 ml. The samples were then centrifuged for 5 min at 250 g, and the absorbance of the supernatant was determined at 540 nm. Supernatants of red blood cells suspended in physiological solution and in 0.2% (v/v) TRITON X100 in physiological solution served as controls for zero hemolysis (blank) and 100% hemolysis, respectively. Hemolytic activity is expressed as the peptide concentration required for lysis of 50% of human erythrocytes in the assay (LC50).

P. aeruginosa (Liberec) = test: Synergistic effect of peptides with antibiotics, FIC index; assay type: cell-based, Pseudomonas aeruginosa; details: FIC <0.5 synergism, 0.5-2 additive, >2 antagonism, averages of three experiments; for FIC indexes (fractional inhibitory concentration) Combination with RIF against P. aeruginosa: peptide combined with rifampicin; for FIC indexes (fractional inhibitory concentration) Combination with TET against P. aeruginosa: peptide combined with tetracycline
Description: MICs values of various combinations of two fold serial dilutions of peptides and antibiotics were determined using the same methodology as in the case of antimicrobial activity determination (Example 2). To consider the type of the final effect, FIC indexes (fractional inhibitory concentration) were used and calculated as follows:
[formula] where MICPC and MICAC are the MICs of the peptide and antibiotic in combination, respectively, and MICP and MICA are the MICs of the peptide and antibiotic tested alone, respectively. FIC<0.5 were considered as synergy, 0.5≤FIC≤2 as addition effect, and FIC>2 as antagonism.

[8] = tested on: Candida albicans ATCC MYA-2876; test: microbe, parasite or virus in culture; assay type: cell-based; details: RPMI broth microdilution, 35° C., 48 hours, visual
Description: (§3) All yeasts Candida albicans (Olomouc) and ATCC MYA-2876, Candida glabrata ATCC 2001 and DSY 565, Candida dubliniensis ATCC MYA-646, Candida krusei ATCC 6258 and Candida tropicalis ATCC 750 were sub-cultured from sterile vials onto Sabouraud dextrose agar, which was composed of 40 g dextrose (Penta, Czech Republic), 10 g peptone (OXOID, Great Britain) and 17 g agar (OXOID), dissolved in 1 l of distilled water, and cultivated for 24 hours at 35° C.
(§4) All strains were stored in a way that minimizes the possibility of mutation. Candida spp. were grown overnight in liquid YPD medium which is composed of 10 g yeast extract (DIFCO, USA), 20 g peptone (OXOID), and 20 g dextrose (Penta) dissolved in 1 l distilled water. Then the overnight culture was cryogenically preserved by suspending in 50% glycerol solution (1:1) in small vials and stored at −80° C.
(§5) The inoculum was prepared by picking five colonies from 24-hour-old cultures of Candida spp. The colonies were suspended in 1 ml of sterile saline solution and vortexed for 15 seconds. Optical density of the suspension was adjusted spectrophotometrically by adding sterile saline solution to produce optical density of 0.18 at 600 nm. A working suspension was made by a 1:50 dilution followed by a 1:20 dilution of the stock suspension with RPMI 1640 broth medium which was composed of L-glutamine without NaHCO3 (BioSera, France), and with 0.165 mol.l^−1 MOPS (Duchefa, Netherland)—further as RPMI broth medium.
(§6) The broth microdilution test was performed by using sterile, disposable, multi-well microdilution plates (96-well). The peptides in the concentrations 0.625-160 μmol.l^−1 were pipetted into the wells in 100 μl volumes. Each well of the plate was inoculated with 100 μl of the diluted inoculum suspension. Final yeast density in each well was 5×10^2 up to 2.5×10^3 CFU/ml. The microdilution plates were incubated without shaking at 35° C. and observed for the presence or absence of visible growth for 48 hours.
(§7) Drug-free medium without inoculation served as negative control; the growth positive control contained inoculated drug-free medium. Amphotericin B was used as control drug to ensure quality of Candida strains.
(§8) The minimal inhibition concentrations (MICs) were visually determined 48 hours after inoculation. The MIC values were defined as the lowest concentration in which no observable growth is noticeable.
(§9) All yeast isolates were obtained from the Institute of Physiology of the Academy of Sciences of the Czech Republic. Candida albicans (Olomouc) came from the Faculty of Medicine and Dentistry, Palacý University Olomouc.

[9] = tested on: Candida tropicalis ATCC 750; test: microbe, parasite or virus in culture; assay type: cell-based; details: RPMI broth microdilution, 35° C., 48 hours, visual
Description: as §3, §4, §5, §6, §7, §8, §9

[10] = tested on: Candida albicans (Olomouc); test: microbe, parasite or virus in culture; assay type: cell-based; details: RPMI broth microdilution, 35° C., 48 hours, visual
Description: as §3, §4, §5, §6, §7, §8, §9

[11] = tested on: Candida glabrata ATCC 2001; test: microbe, parasite or virus in culture; assay type: cell-based; details: RPMI broth microdilution, 35° C., 48 hours, visual
Description: as §3, §4, §5, §6, §7, §8, §9

[12] = tested on: Candida dubliniensis ATCC MYA-646; test: microbe, parasite or virus in culture; assay type: cell-based; details: RPMI broth microdilution, 35° C., 48 hours, visual
Description: as §3, §4, §5, §6, §7, §8, §9

Candida glabrata DSY 565 = test: microbe, parasite or virus in culture; assay type: cell-based; details: RPMI broth microdilution, 35° C., 48 hours, visual
Description: as §3, §4, §5, §6, §7, §8, §9

Candida krusei ATCC 6258 = test: microbe, parasite or virus in culture; assay type: cell-based; details: RPMI broth microdilution, 35° C., 48 hours, visual
Description: as §3, §4, §5, §6, §7, §8, §9

[13] = synthetically prepared hylanine, in words

Molecule	Antimicrobial activity MIC E. c. (Escherichia coli) [µmol/L]	Antimicrobial activity MIC P. a. Liberec [1] [µmol/L]	Antimicrobial activity MIC E. f. Motol [2] [µmol/L]	Antimicrobial activity MIC B. s. (Bacillus subtilis) [µmol/L]	Antimicrobial activity MIC P. a. 5482 [3] [µmol/L]	Antimicrobial activity MIC S. a. 6271 [4] [µmol/L]	Antimicrobial activity MIC S. e. Motol [5] [µmol/L]	Antimicrobial activity MIC M. l. (Micrococcus luteus) [µmol/L]	Antimicrobial activity MIC S. a. Liberec [6] [µmol/L]	Antimicrobial activity MIC S. a. Motol [7] [µmol/L]	Antimicrobial activity MIC C. a. Olomouc (Candida albicans Olomouc) [µmol/L]	HC50 at 1 h (in vitro) [µM]	FIC indexes (fractional inhibitory concentration) Combination with RIF against P. aeruginosa (P. aeruginosa (Liberec))	Antifungal activity MIC C. albicans ATCC MYA-2876 [8] [µmol/L]	Antifungal activity MIC C. tropicalis ATCC 750 [9] [µmol/L]	Antifungal activity MIC C. albicans Olomouc [10] [µmol/L]	Antifungal activity MIC C. glabrata ATCC 2001 [11] [µmol/L]	Antifungal activity MIC C. dubliniensis ATCC MYA-646 [12] [µmol/L]	Antifungal activity MIC C. glabrata DSY 565 (Candida glabrata DSY 565) [µmol/L]	Antifungal activity MIC C. krusei ATCC 6258 (Candida krusei ATCC 6258) [µmol/L]	also measured
CN(C)[C@@H]1C(=O)C(C(N)=O)=C(O)[C@@]2(O)C(=O)C3=C(O)c4c(O)cccc4[C@@](C)(O)[C@H]3C[C@@H]12 [Tetracyklin, Tetracycline, reference compound]	2.7	70.4	40.0	16.0	28.7	0.9	>100	0.8	1.1	2.0											
H-GILSSLLKKLKKWIAK-NH2 [XVIII]	4.0	20.7	25.3	1.3	8.0	8.0	1.6		2.5	4.0	16.0	160	0.271	10.0	1.2	8.5	8.5	10.0	24.0	7.8	FIC indexes (fractional inhibitory concentration) Combination with TET against P. aeruginosa (P. aeruginosa (Liberec)): 0.625
H-GILSSLWKKLKKWIAK-NH2 [XVII]	2.5	24.1	10.0	1.3	12.7	2.5	1.6		1.6	2.0	12.7	57.2	0.292	5.5	0.8	4.5	5.5	5.0	11.0	3.3	FIC indexes (fractional inhibitory concentration) Combination with TET against P. aeruginosa (P. aeruginosa (Liberec)): 0.417
H-GIMSSLMKKLAAHIAK-NH2 [hylanine, reference compound]																					activity against Pseudomonas aeruginosa ([1]; all strains, in words): weak; activity against the yeast Candida albicans (Candida albicans Olomouc; [13]): moderate activity; antimicrobial activity against Bacillus subtilis (Bacillus subtilis; [13]): high antimicrobial activity; antimicrobial activity against Micrococcus luteus (Micrococcus luteus; [13]): high antimicrobial activity; activity against Staphylococcus aureus ([6]; all strains of pathogenic Staphylococcus aureus, in words): weak
H-GIMSSLMKKLAAHIKK-NH2 [VIII]	20.0	46.0	>100	2.8	23.0	85.3	11.3	1.6	76.7	90.0	5.0			20.0	1.1	17.0	26.0	36.0	66.7	10.0	
